We go through five cell lines from the supplement of paper PMC10307832.

Common to all, as to assay: relative viability (nuclei count vs DMSO), 5 days (fraction); higher = more cells survive
Compound in assay [1]: CC1=CC(=NN1)NC2=CC(=NC(=N2)/C=C/C3=CC=CC=C3)N4CCN(CC4)C + CS(=O)(=O)CCNCc1ccc(-c2ccc3ncnc(Nc4ccc(OCc5cccc(F)c5)c(Cl)c4)c3c2)o1 [Lapatinib] (partner 2 µM)
Summed up:
(§1)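 Nuclei were stained with Hoechst during a one-step fixation (final 0.05% Triton X-100, 1% formaldehyde, 1 ug/ml Hoechst) carried out 5 days after dosing, then counted on 4× images. The cells, lung cancer lines in 1536-well plates, had been dosed by pin tool the day after seeding with one drug alone or a fixed anchor-drug dose plus five library-drug doses (not always all listed) in √10 steps. Relative viability is the nuclei count in treated wells divided by that in vehicle wells, and each value is the median of duplicate plates.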

Compound in assay [2]: COC1=CC(c2cc3ccccc3[nH]2)=N/C1=C\c1[nH]c(C)cc1C [Obatoclax] + O=C(c1cc(Cc2n[nH]c(=O)c3ccccc23)ccc1F)N1CCN(C(=O)C2CC2)CC1 [Olaparib] (partner 8 µM)
Put shortly: as §1

Compound in assay [3]: COC1=CC(c2cc3ccccc3[nH]2)=N/C1=C\c1[nH]c(C)cc1C [Obatoclax] + N=C(N)NC(=N)NCCc1ccccc1 [Phenformin] (partner 250 µM)
Summed up:
as §1

Compound in assay [4]: CC1=CC(=NN1)NC2=CC(=NC(=N2)/C=C/C3=CC=CC=C3)N4CCN(CC4)C + CC(=O)c1c(C)c2cnc(Nc3ccc(N4CCNCC4)cn3)nc2n(C2CCCC2)c1=O [Palbociclib] (partner 0.5 µM)
Summed up:
as §1

Regarding RERF-LC-KJ, the relative viability in assay [1] (first compound 0.08 µM) was determined as 0.878; in assay [1] (first compound 0.253 µM) it was 0.875; in assay [1] (first compound 0.8 µM), 0.839; in assay [1] (first compound 2.53 µM), 0.716; in assay [1] (first compound 8 µM), 0.292; in assay [2] (first compound 0.01 µM), 0.897. The relative viability in assay [2] (first compound 0.03162 µM) came out at 0.903; in assay [2] (first compound 0.1 µM), 0.897; in assay [2] (first compound 0.3162 µM), 0.863; in assay [2] (first compound 1 µM) it was 0.33; in assay [3] (first compound 0.01 µM), 0.37; in assay [3] (first compound 0.03162 µM), 0.441. For the same cell line, the relative viability in assay [3] (first compound 0.1 µM) was 0.459; in assay [3] (first compound 0.3162 µM), 0.45; in assay [3] (first compound 1 µM), 0.434; in assay [4] (first compound 0.08 µM) it was 1.03; in assay [4] (first compound 0.253 µM), 1.15; in assay [4] (first compound 0.8 µM) it was 0.92. The relative viability is 0.647 in assay [4] (first compound 2.53 µM) and 0.336 in assay [4] (first compound 8 µM).

Turning to SK-LU-1, the relative viability in assay [1] (first compound 0.08 µM) was 0.861; in assay [1] (first compound 0.253 µM), 0.959; in assay [1] (first compound 0.8 µM) it was 0.699; in assay [1] (first compound 2.53 µM), 0.386; in assay [1] (first compound 8 µM) it was 0.116; in assay [2] (first compound 0.01 µM), 0.448. For the same cell line, the relative viability in assay [2] (first compound 0.03162 µM) stood at 0.468; in assay [2] (first compound 0.1 µM), 0.372; in assay [2] (first compound 0.3162 µM) it was 0.447; in assay [2] (first compound 1 µM), 0.347; in assay [3] (first compound 0.01 µM), 0.587; in assay [3] (first compound 0.03162 µM), 0.507. The relative viability in assay [3] (first compound 0.1 µM) stood at 0.414; in assay [3] (first compound 0.3162 µM), 0.246; in assay [3] (first compound 1 µM), 0.244; in assay [4] (first compound 0.08 µM), 0.453; in assay [4] (first compound 0.253 µM), 0.368; in assay [4] (first compound 0.8 µM) it was 0.457. The relative viability stood at 0.248 in assay [4] (first compound 2.53 µM) and 0.155 in assay [4] (first compound 8 µM).

As for SK-MES-1, the relative viability in assay [1] (first compound 0.08 µM) came to 0.44; in assay [1] (first compound 0.253 µM) it was 0.52; in assay [1] (first compound 0.8 µM), 0.453; in assay [1] (first compound 2.53 µM), 0.329; in assay [1] (first compound 8 µM) it was 0.146; in assay [2] (first compound 0.01 µM), 0.641. Moreover, the relative viability in assay [2] (first compound 0.03162 µM) amounted to 0.655; in assay [2] (first compound 0.1 µM) it was 0.495; in assay [2] (first compound 0.3162 µM), 0.172; in assay [2] (first compound 1 µM), 0.17; in assay [3] (first compound 0.01 µM) it was 0.642; in assay [3] (first compound 0.03162 µM), 0.704. Moreover, the relative viability in assay [3] (first compound 0.1 µM) was 0.558; in assay [3] (first compound 0.3162 µM) it was 0.361; in assay [3] (first compound 1 µM) it was 0.273; in assay [4] (first compound 0.08 µM), 0.357; in assay [4] (first compound 0.253 µM), 0.289; in assay [4] (first compound 0.8 µM), 0.309. Moreover, the relative viability in assay [4] (first compound 2.53 µM) amounted to 0.257; in assay [4] (first compound 8 µM), 0.155.

With SW 1573, the relative viability in assay [1] (first compound 0.08 µM) came out at 1.08; in assay [1] (first compound 0.253 µM) it was 1.34; in assay [1] (first compound 0.8 µM) it was 1.11; in assay [1] (first compound 2.53 µM) it was 0.906; in assay [1] (first compound 8 µM) it was 0.134; in assay [2] (first compound 0.01 µM), 0.488. Also, the relative viability was found to be 0.529 in assay [2] (first compound 0.03162 µM); 0.363 in assay [2] (first compound 0.1 µM); 0.149 in assay [2] (first compound 0.3162 µM); 0.179 in assay [2] (first compound 1 µM); 0.333 in assay [3] (first compound 0.01 µM); 0.31 in assay [3] (first compound 0.03162 µM). Also, the relative viability in assay [3] (first compound 0.1 µM) amounted to 0.282; in assay [3] (first compound 0.3162 µM) it was 0.24; in assay [3] (first compound 1 µM) it was 0.153; in assay [4] (first compound 0.08 µM), 0.378; in assay [4] (first compound 0.253 µM), 0.442; in assay [4] (first compound 0.8 µM) it was 0.301. In addition, the relative viability in assay [4] (first compound 2.53 µM) turned out to be 0.131; in assay [4] (first compound 8 µM), 0.0733.

With UMC-11, the relative viability in assay [1] (first compound 0.08 µM) came out at 0.9; in assay [1] (first compound 0.253 µM), 0.758; in assay [1] (first compound 0.8 µM), 0.63; in assay [1] (first compound 2.53 µM) it was 0.152; in assay [1] (first compound 8 µM), 0.128; in assay [2] (first compound 0.01 µM), 0.316. For the same cell line, the relative viability in assay [2] (first compound 0.03162 µM) stood at 0.448; in assay [2] (first compound 0.1 µM), 0.43; in assay [2] (first compound 0.3162 µM) it was 0.415; in assay [2] (first compound 1 µM), 0.289; in assay [3] (first compound 0.01 µM) it was 0.303; in assay [3] (first compound 0.03162 µM), 0.294. In addition, the relative viability in assay [3] (first compound 0.1 µM) is 0.291; in assay [3] (first compound 0.3162 µM), 0.272; in assay [3] (first compound 1 µM), 0.242; in assay [4] (first compound 0.08 µM) it was 0.327; in assay [4] (first compound 0.253 µM), 0.342; in assay [4] (first compound 0.8 µM), 0.323. Besides, the relative viability in assay [4] (first compound 2.53 µM) and in assay [4] (first compound 8 µM) was 0.232 in each case.
